Eleven compounds from patent US20250002507A1, “7,8-DIHYDRO-5H-1,6-NAPHTHYRIDINE DERIVATIVES AS POSITIVE ALLOSTERIC MODULATORS OF THE MUSCARINIC ACETYLCHOLINE RECEPTOR M4 FOR TREATING NEUROLOGICAL AND PSYCHIATRIC DISORDERS” (Vanderbilt University, priority 2021, published 2025) can be followed below.

The target of this test is T1, Human M4 (Homo sapiens, UniProt P08173).
T1 construct: expressed in transfected cells
T1 sequence (P08173 1-479): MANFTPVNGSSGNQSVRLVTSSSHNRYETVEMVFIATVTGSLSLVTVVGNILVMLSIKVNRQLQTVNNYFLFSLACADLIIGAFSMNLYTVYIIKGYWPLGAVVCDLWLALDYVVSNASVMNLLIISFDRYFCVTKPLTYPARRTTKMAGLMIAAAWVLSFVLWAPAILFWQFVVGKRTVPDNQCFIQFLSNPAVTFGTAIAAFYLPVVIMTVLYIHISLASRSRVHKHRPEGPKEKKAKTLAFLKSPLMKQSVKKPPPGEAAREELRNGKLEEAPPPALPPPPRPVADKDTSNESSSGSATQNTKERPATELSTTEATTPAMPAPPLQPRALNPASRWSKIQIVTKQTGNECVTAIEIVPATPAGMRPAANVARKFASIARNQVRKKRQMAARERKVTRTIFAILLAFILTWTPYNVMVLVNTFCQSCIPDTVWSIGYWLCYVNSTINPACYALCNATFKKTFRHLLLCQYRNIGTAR
In words: mAChR M4 cell-based functional assay (calcium flux, potentiation of EC20 acetylcholine response), hM4-Gqi5 CHO-K1 cells. To be noted: Table 4; for Emax at 30 µM: CHO-K1, Human M4, % ACh maximum at 30 μM, read-out: Emax (% ACh maximum at 30 μM); for EC50: potentiation of EC20 acetylcholine response, calcium flux, CHO-K1 cells, read-out: Human M4 EC50. The essentials: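 Positive allosteric modulation was scored as a concentration-dependent rise in the response to an EC20 dose of acetylcholine, added 144 s after the compound. Human M4-Gqi5 CHO-K1 cells carried Fluo-4 dye, and compounds ran as 11-point, 3-fold dilution series. EC50 and Emax came from four-parameter logistic fits of the FDSS fluorescence-ratio traces.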
For orientation: Calcium assays in cells follow changes in intracellular calcium, usually with a dye or a luminescent sensor.

As usually defined, the Emax is the size of the effect at its maximum, as opposed to the concentration needed. For orientation: EC50 means the midpoint of the concentration-response curve. Turning to `Cc1cc2cncn2nc1N1CCc2ncc(-c3cn(C)nc3C)cc2C1` [Compound 342, 3-(1,3-dimethyl-1H-pyrazol-4-yl)-6-(3-methylimidazo[1,5-b]pyridazin-2-yl)-5,6,7,8-tetrahydro-1,6-naphthyridine], the Emax at 30 µM is 81% and the EC50 came to 492 nM.

`c1cc2n(n1)CCCN2c1cnc2c(c1)CN(c1nn3cnnc3c3c1CCCC3)CC2` [Compound 344, 6-(3-(6,7-dihydropyrazolo[1,5-a]pyrimidin-4(5H)-yl)-7,8-dihydro-1,6-naphthyridin-6(5H)-yl)-7,8,9,10-tetrahydro-[1,2,4]triazolo[3,4-a]phthalazine]: the Emax at 30 µM was 73% and the EC50 is 547 nM.

With `FC(F)(F)c1cnc2c(c1)CN(c1nn3cnnc3c3c1CCCC3)CC2` [Compound 345, 6-(3-(trifluoromethyl)-7,8-dihydro-1,6-naphthyridin-6(5H)-yl)-7,8,9,10-tetrahydro-[1,2,4]triazolo[3,4-a]phthalazine], the Emax at 30 µM is 63% and the EC50 came to 1460 nM.

In the case of `Cc1c(C2CC2)c(N2CCc3ncc(C(F)(F)F)cc3C2)nn2cnnc12` [Compound 346, 6-(7-Cyclopropyl-8-methyl-[1,2,4]triazolo[4,3-b]pyridazin-6-yl)-3-(trifluoromethyl)-5,6,7,8-tetrahydro-1,6-naphthyridine], the Emax at 30 µM is 70% and the EC50 was determined as 2110 nM.

Turning to `Cc1ccc(-c2cnc3c(c2)CN(c2nn4cnnc4c(C)c2C2CC2)CC3)cn1` [Compound 347, 6-(7-cyclopropyl-8-methyl-[1,2,4]triazolo[4,3-b]pyridazin-6-yl)-3-(6-methylpyridin-3-yl)-5,6,7,8-tetrahydro-1,6-naphthyridine], the Emax at 30 µM was 61% and the EC50 was found to be 788 nM.

Turning to `Cc1c(C2CC2)c(N2CCc3ncc(N4CCO[C@H](C)C4)cc3C2)nn2cnnc12` [Compound 348, (R)-4-(6-(7-cyclopropyl-8-methyl-[1,2,4]triazolo[4,3-b]pyridazin-6-yl)-5,6,7,8-tetrahydro-1,6-naphthyridin-3-yl)-2-methylmorpholine], the maximal effect (Emax) at 30 µM came to 66% and the half-maximal effective concentration (EC50) amounted to 1850 nM.

For `COCc1c(N2CCc3ncc(C(F)(F)F)cc3C2)nn2cnnc2c1C` [Compound 349, 6-(7-(Methoxymethyl)-8-methyl-[1,2,4]triazolo[4,3-b]pyridazin-6-yl)-3-(trifluoromethyl)-5,6,7,8-tetrahydro-1,6-naphthyridine], the Emax at 30 µM came out at 106% and the EC50 stood at 93 nM.

For the compound `COCc1c(C)c(N2CCc3ncc(C(F)(F)F)cc3C2)nn2cnnc12` [Compound 350, 6-(8-(Methoxymethyl)-7-methyl-[1,2,4]triazolo[4,3-b]pyridazin-6-yl)-3-(trifluoromethyl)-5,6,7,8-tetrahydro-1,6-naphthyridine], the Emax at 30 µM came out at 77% and the EC50 turned out to be 5110 nM.

`Cc1c(N2CCc3ncc(C(F)(F)F)cc3C2)nn2cnnc2c1C(F)(F)F` [Compound 351, 6-(7-Methyl-8-(trifluoromethyl)-[1,2,4]triazolo[4,3-b]pyridazin-6-yl)-3-(trifluoromethyl)-5,6,7,8-tetrahydro-1,6-naphthyridine]: the Emax at 30 µM is 77% and the EC50 stood at 1400 nM.

Consider `[2H]C1([2H])Cc2ncc(Nc3cc(C)ncc3F)cc2C([2H])([2H])N1c1nn2cnnc2cc1C` [Compound 352, N-(5-fluoro-2-methylpyridin-4-yl)-6-(7-methyl-[1,2,4]triazolo[4,3-b]pyridazin-6-yl)-5,6,7,8-tetrahydro-1,6-naphthyridin-5,5,7,7-d4-3-amine], for which the Emax at 30 µM is 98% and the EC50 turned out to be 67 nM.

In the case of `[2H]C1([2H])Cc2ncc(Nc3cc(C)ncc3F)cc2C([2H])([2H])N1c1nn2cnnc2c(C)c1C` [Compound 353, 6-(7,8-dimethyl-[1,2,4]triazolo[4,3-b]pyridazin-6-yl)-N-(5-fluoro-2-methylpyridin-4-yl)-5,6,7,8-tetrahydro-1,6-naphthyridin-5,5,7,7-d4-3-amine], the Emax at 30 µM turned out to be 99% and the EC50 was 22 nM.
